Measurements: patent publication US4980377A, “1-(aminophenyl)-2-aminopropanone derivatives” (Laboratoire L. Lafon, priority 1984, dated 1990)
“Also recorded” adds a separate entry of the source. Where a name gives a salt, the structure may show the parent alone.

Tests used:
rats [1] = assay: Interaction with amphetamine; type: in vivo, rat; details: i.p.
Description: Amphetamine (2 mg/kg) is injected intraperitoneally into groups of 6 rats 30 minutes after the administration of CRL 41 153. […] 4 mg/kg and 16 mg/kg, CRL 41 153 potentiates the intensity and duration of the stereotypies induced by amphetamine.

[2] = test system: gravid White New Zealand female rabbits; assay: Teratogenicity in gravid White New Zealand rabbits; type: in vivo, rabbit; details: day 5 to day 18 of gestation; for Affected foetuses, %: normal limit 1.5%
Outline: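 Fetuses harvested by cesarean on gestation day 29 were scored for number and for any malformation (limb blockade, anury, tail or skull defects, exencephaly).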

immunity = assay: Immunological study (overall); details: in vivo; hydrochloride
mice [3] = assay: Asphyxiant anoxia (gallamine triiodoethylate); type: in vivo, mouse; details: i.p., curarizing agent
Description: Groups of 10 mice receive CRL 41 153 half an hour before the intraperitoneal administration of 32 mg/kg of gallamine triiodoethylate (reference curarizing agent).

rats [4] = assay: Overall behavior and reactivities in rats; type: in vivo, rat; details: dose not stated
Description: (§1) In the neuropsychopharmacological study which follows, a solution of CRL 41 153 in distilled water (pH 1.5) was administered intraperitoneally in a volume of 20 ml/kg to male mice and 5 ml/kg to male rats.
(§2) Groups of three animals are observed before and then 0.25 hour, 0.50 hour, 1 hour, 2 hours, 3 hours and 24 hours after the administration of CRL 41 153.

mice [5] = assay: Interaction with oxotremorine; type: in vivo, mouse; details: i.p.
Description: CRL 41 153 is administered to groups of 6 mice 0.5 hour before the intraperitoneal injection of 0.5 mg/kg of oxotremorine.

mice [6] = assay: Spontaneous motility; type: in vivo, mouse; details: i.p.
Description: 0.5 hour after they have received CRL 41 153, the mice (6 per dose, 12 control animals) are placed in an actimeter, where their motility is recorded for 30 minutes.

mice [7] = assay: Intergroup aggressiveness; type: in vivo, mouse; details: i.p.
Description: After they have stayed for 3 weeks in the two halves of a cage divided by an opaque partition, groups of 3 mice receive CRL 41 153. Half an hour later, the two groups from the same cage are brought together by removal of the partition, and the number of fights which occur in 10 minutes is noted.

mice [8] = assay: Overall behavior and reactivities in mice; type: in vivo, mouse; details: dose not stated
Description: as §1, §2

mice [9] = assay: Behavioral despair; type: in vivo, mouse; details: forcibly immersed mice, i.p.
Source text: Half an hour after they have received CRL 41 153, groups of 6 mice are placed in a beaker filled with water to a height of 6 cm. The total period of immobility between the 2nd and 6th minutes following immersion is noted.

mice [10] = assay: Interaction with barbital; type: in vivo, mouse; details: i.p., barbital 220 mg/kg
Description: Half an hour after the administration of CRL 41 153, groups of 10 mice receive an intraperitoneal injection of barbital (220 mg/kg).

dogs = assay: Cardiovascular study in anesthetized dogs; type: in vivo, dog
Description: Two dogs (average weight: 14.1 kg), anesthetized with nembutal, receive CRL 41 194 by intraduodenal administration at successive doses of 0.1 mg/kg, 0.5 mg/kg, 1 mg/kg, 2.5 mg/kg, 5 mg/kg and 10 mg/kg (in solution in physiological solvent).
The blood pressure, the heart rate, the blood flow through the femoral artery, the blood flow through the vertebral artery and the rectal temperature are measured. The coloration of the skin and the coloration of the bile, collected by catheterization of the bile duct after ligature of the cystic duct, are observed.
4 dogs (average weight: 14 kg), anesthetized with nembutal, receive CRL 41 221 by intraduodenal administration at successive doses of 0.1 mg/kg, 0.5 mg/kg, 1 mg/kg, 2.5 mg/kg, 5 mg/kg and 10 mg/kg. The blood pressure, the heart rate, the blood flow through the femoral artery, the blood flow through the vertebral artery and the rectal temperature are measured. The coloration of the skin is observed.

mice [11] = assay: Interaction with apomorphine in mice; type: in vivo, mouse; details: i.p.
Description: Groups of 6 mice receive CRL 41 153 0.5 hour before the subcutaneous injection of 1 or 16 mg/kg of apomorphine.

mice [12] = assay: Motility reduced by hypoxic aggression; type: in vivo, mouse; details: i.p.
Description: Half an hour after they have received CRL 41 153, the mice (10 per dose, 20 control animals) are subjected to acute hypobaric anoxia [pressure reduction of 600 mm Hg (i.e. about 8×10^4 Pa) in 90 seconds; release of vacuum in 45 seconds] and are then placed in an actimeter, where their motility is recorded for 10 minutes.

[13] = pH of solutions in distilled water; type: physicochemical
Description: The neuropsychopharmacological study was undertaken according to the procedures described above for CRL 41 153, CRL 41 213 being adminstered intraperitoneally, in solution in distilled water, in a volume of 20 ml/kg to male mice and a volume of 5 ml/kg to male rats, and the pH of the injected solution varying with the concentration of CRL 41 213 according to the data given in Table II below.

mice [14] = assay: Four plate test, traction and electric shock; type: in vivo, mouse; details: i.p.
Description: The test is performed on groups of 10 mice 30 minutes after the administration of CRL 41 153.

mice [15] = assay: Motility reduced by habituation to the enclosure; type: in vivo, mouse; details: i.p.
Description: After they have stayed In the actimeters for 18 hours, (he mice (6 per dose, 12 control animals) receive CRL 41 153. They are immediately returned to their respective enclosures and, half an hour later, their motility is recorded for 30 minutes.

CNS = assay: Neuropsychopharmacological profile as a whole; type: in vivo, mice and rats; details: conclusion of the tests
Description: as §1

mice [16] = assay: Interaction with reserpine; type: in vivo, mouse; details: i.p.
Description: Four hours after the intraperitoneal injection of 2.5 mg/kg of reserpine, groups of 6 mice receive CRL 41 153.

rats [17] = assay: Interaction with apomorphine in rats; type: in vivo, rat; details: i.p.
Description: CRL 41 153 is administered to groups of 6 rats 0.5 hour before the subcutaneous injection of 0.5 mg/kg of apomorphine.

[18] = Particular toxicity in grouped mice; details: mouse, in vivo, ip
Description: The number of dead animals is noted after 1 hour, 2 hours, 3 hours, 4 hours and 24 hours.

[19] = test system: nigrostriatal dopaminergic system; assay: Interaction with alpha-methyltyrosine on stereotypies (difference from amphetamine); details: α-methyltyrosine (catecholamine synthesis blocked)
[20] = anesthetized dogs, intraduodenal
[21] = dogs, after product, isoprenaline 3 μg/kg
[22] = dogs, after product, norepinephrine 2 μg/kg

## CC(C)NC(C)C(=O)c1ccc(N)c(Cl)c1 (stereo not shown) [CRL 41 221, 1-(4-amino-3-chlorophenyl)-2-isopropylaminopropanone hydrochloride]
Rats [1]
  Effect on stereotypies induced by amphetamine: potentiation of the stereotypies
[2]; 5 mg/kg daily
  Affected foetuses, number: 1
  Total foetuses (live): 91
  Affected foetuses, %: 1.11%
[2]; 10 mg/kg daily
  Affected foetuses, number: 1
  Total foetuses (live): 87
  Affected foetuses, %: 1.14%
immunity
  Immunological effect (overall): immunostimulant or immunomodulating effects; also recorded: has an immunomodulating effect and increases the cellular immunity
Mice [3]
  Time taken for convulsions to occur: a reduction in the aggressiveness and (he time taken for convulsions and death to occur
  Time taken for death to occur: a reduction in the aggressiveness and (he time taken for convulsions and death to occur
Rats [4]
  Stereotype movements (summary): the presence of stereotype movements in mice and rats
Rats [4]; hydrochloride
  Overall behavior: observed effects (summary): excitation with hyperreactivity in mice and rats; also recorded: mydriasis and salivation in mice and rats
Mice [5]
  Effect on hypothermic action of oxotremorine: antagonism of the hypothermia
Mice [6]
  Spontaneous motor activity: an increase in the spontaneous motor activity of mice
Mice [7]
  Number of fights / intergroup aggressiveness: a reduction in the aggressiveness
Mice [8]
  Stereotype movements (summary): the presence of stereotype movements in mice and rats
Mice [8]; hydrochloride
  Overall behavior: observed effects (summary): excitation with hyperreactivity in mice and rats; also recorded: mydriasis and salivation in mice and rats
Mice [9]
  Period of immobility due to despair: a reduction in the period of immobility of mice which have been forcibly immersed
Mice [10]
  Duration of the sleep induced by barbital: a reduction in the duration of the sleep induced by barbital
dogs; anesthetized dogs
  Effect on hypertension induced by norepinephrine: slightly reduced
  Effects of isoprenaline on the blood pressure: not modified as regards the diastolic blood pressure
  Rectal temperature: the rectal temperature and skin temperature rise gradually
  Skin temperature: the rectal temperature and skin temperature rise gradually
dogs; anesthetized dogs, after accumulated dose of 19.1 mg/kg intraduodenal
  Effects of isoprenaline on the heart rate: slightly reduced as regards the heart rate
dogs; [20]
  Blood pressure: A reduction in the diastolic blood pressure is observed at 5 mg/kg and hypotension appears at 10 mg/kg
  Femoral flow: tachycardiac effect as from 2.5 mg/kg, that the femoral flow increases substantially as from this same dose
  Heart rate: tachycardiac effect as from 2.5 mg/kg
  Respiration: the respiration is stimulated
  Vertebral flow: the vertebral flow increases at a dose of 0.5 mg/kg
dogs; anesthetized dogs, hydrochloride
  Effect of propanolol or atenolol on the action of the product: The injection of atenolol into 2 dogs reduces the effects of CRL 41 221; also recorded: the injection of propanolol does not increase the β^- effects
dogs; [21]
  Heart rate after isoprenaline: 262 beats/minute
  Heart rate before isoprenaline: 212 beats/minute
dogs; [22]
  Systolic blood pressure after norepinephrine: 266 mm Hg
  Systolic blood pressure before norepinephrine: 158 mm Hg
dogs; hydrochloride
  Vasodilator (conclusion): vasodiating properties; also recorded: consequently a vasodilator
Mice [11]
  Effect on hypothermia induced by apomorphine: antagonism of the hypothermia
Mice [12]
  Motor recovery of mice after hypobaric hypoxia: improvement in the motor recovery of mice subjected to acute hypoxia
[13]; 6 g/liter in distilled water
  pH: 5.0
[13]; 13 g/liter in distilled water
  pH: 4.5
[13]; 50 g/liter in distilled water
  pH: 4.0
[13]; ≤3 g/liter in distilled water
  pH: 5.5
Mice [14]
  Effect on convulsant effects of electric shock: a reduction in the convulsant effects of electric shock
  Number of punished passes in the four plate test: a moderate increase in the number of punished passes in the 4 plate test on mice (at a strong dose)
Mice [15]
  Motor activity of mice accustomed to their enclosure: resumption in the motor activity of mice accustomed to their enclosure
CNS
  Antidepressant effects (overall): antidepressant properties
  Stimulant effects (overall): large stimulant component
  α-adrenergic stimulant effects (overall): an α-adrenergic stimulation component
Mice [16]
  Effect on hypothermia induced by reserpine: antagonism of the hypothermia
  Effect on ptosis induced by reserpine: a decrease in the ptosis induced by reserpine
Rats [17]
  Effect on stereotypies induced by apomorphine: potentiation of the stereotypies

## CC(N)Cc1ccccc1 (stereo not shown) [amphetamine, reference compound]
[18]
  selectivity ratio: ~8
[19]
  Effect of alpha-methyltyrosine on the stereotypies induced by the substance: totally inhibits the stereotypies induced by amphetamine; also recorded: totally inhibited
